Data: patent US7994177B2, “Therapeutic agents useful for treating pain” (Purdue Pharma L.P., priority 2003, dated 2011)

Tests used:
[1] = biological target: T1, human VR1 (Homo sapiens, UniProt Q8NER1); assay: pH-based assay of human VR1 (FLIPR calcium influx); type: cell-based; settings: agonist buffer pH 5.5, HEK293-EcR cells expressing human VR1, n=4
T1 construct: expressed in transfected cells
Method: (§1) Human VR1 Cloning: Human spinal cord RNA (commercially available from Clontech, Palo Alto, Calif.) was used. Reverse transcription was conducted on 1.0 μg total RNA using Thermoscript Reverse Transcriptase (commercially available from Invitrogen) and oligo dT primers as detailed in its product description. Reverse transcription reactions were incubated at 55° C. for 1 h, heat-inactivated at 85° C. for 5 min, and RNase H-treated at 37° C. for 20 min.
(§2) Human VR1 cDNA sequence was obtained by comparison of the human genomic sequence, prior to annotation, to the published rat sequence. Intron sequences were removed and flanking exonic sequences were joined to generate the hypothetical human cDNA. Primers flanking the coding region of human VR1 were designed as follows: forward primer, […]; and reverse primer, […]. […]
(§3) Generation of Inducible Cell Lines: Unless noted otherwise, cell culture reagents were purchased from Life Technologies of Rockville, Md. […] On the day of assay, cells were loaded with Fluo-4 (a calcium-sensitive dye that is commercially available from Molecular Probes) and CAP-mediated calcium influx was measured using a FLIPR as described below. […]

[2] = biological target: T1, human VR1; assay: Capsaicin-based assay of human VR1 (FLIPR calcium influx); type: cell-based; settings: activation by capsaicin (400 nM), HEK293-EcR cells expressing human VR1, n=3
Method: as §1, §2, §3

T1 sequence (Q8NER1 whole entry): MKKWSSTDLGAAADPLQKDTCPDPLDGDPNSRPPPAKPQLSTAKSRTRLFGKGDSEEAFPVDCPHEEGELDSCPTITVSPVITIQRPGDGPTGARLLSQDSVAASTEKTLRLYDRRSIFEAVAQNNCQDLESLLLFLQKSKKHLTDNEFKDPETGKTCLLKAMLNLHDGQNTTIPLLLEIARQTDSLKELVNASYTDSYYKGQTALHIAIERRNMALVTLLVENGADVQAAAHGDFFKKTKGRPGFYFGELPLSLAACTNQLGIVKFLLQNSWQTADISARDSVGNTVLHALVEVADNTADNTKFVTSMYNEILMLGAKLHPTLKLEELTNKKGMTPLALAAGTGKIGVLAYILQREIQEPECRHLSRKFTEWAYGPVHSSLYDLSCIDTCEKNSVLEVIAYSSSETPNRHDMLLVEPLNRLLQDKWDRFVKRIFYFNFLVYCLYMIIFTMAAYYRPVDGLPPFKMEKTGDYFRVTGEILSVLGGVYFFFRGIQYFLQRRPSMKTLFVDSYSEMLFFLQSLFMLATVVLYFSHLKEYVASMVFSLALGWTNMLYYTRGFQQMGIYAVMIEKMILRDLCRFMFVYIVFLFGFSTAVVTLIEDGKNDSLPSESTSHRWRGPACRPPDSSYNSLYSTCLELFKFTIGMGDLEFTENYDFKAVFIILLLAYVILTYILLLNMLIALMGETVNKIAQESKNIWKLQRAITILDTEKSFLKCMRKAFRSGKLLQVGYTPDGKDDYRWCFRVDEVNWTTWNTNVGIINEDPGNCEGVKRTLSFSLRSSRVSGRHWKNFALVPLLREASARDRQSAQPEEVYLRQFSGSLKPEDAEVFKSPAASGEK

IC50 [1]: 826 ± 248 nM | IC50 [2]: 65.5 ± 17.3 nM
Structure (SMILES): Cc1cccnc1-c1ccc(C(=O)Nc2ccc(C(C)(C)C)cc2)nc1 [E35(a)]
